Assay results reported in ChEMBL document CHEMBL1123421, “Interaction of monoamine oxidase B with analogues of 1-methyl-4-phenyl-1,2,3,6-tetrahydropyridine derived from prodine-type analgesics” (J Med Chem, 1986).

Assays:
[1] = species on record: Homo sapiens; assay: Compound was tested for inhibition of monoclonal antibody complex (MAO B - MAO B 1C2) from human autopsy liver expressed as specific activity
[2] = species on record: Homo sapiens; assay: Compound was tested for inactivation of monoclonal antibody complex (MAO B - MAO B 1C2) from human autopsy liver
[3] = species on record: Homo sapiens; assay: Compound was tested for inactivation of monoclonal antibody complex Monoamine oxidase B from human autopsy liver

| Structure (SMILES) | Specific activity (nM min-1 mg-1) [1] | k' [2] [min⁻¹] | k' [3] [min⁻¹] |
| --- | --- | --- | --- |
| CC1CN(C)CC=C1c1ccccc1 (stereo not drawn) | 11.4 | 0 | – |
| CN1CC=C(c2ccccc2)CC1 | 85.2 | 0.0264 | – |
| CC1=C(c2ccccc2)CCN(C)C1 | 5.3 | 0 | – |
| C1=C(c2ccccc2)CCN(CCc2ccccc2)C1 | 0 | – | 0 |
